Results published in PubChem BioAssay (NCI).
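Values below derive from 48-hour exposures of cells grown in 96-well plates, with endpoints linearly interpolated between the two concentrations bracketing the appropriate inhibition level. At the GI50, growth is halved. TGI denotes the concentration required for complete inhibition of growth.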

Tests used:
Test in all cases: NCI-60 cell line screen, 48 h
786-0 renal = system: 786-0 renal
A498 renal = system: A498 renal
A549 NSCLC = system: A549 NSCLC
ACHN renal = system: ACHN renal
BT-549 breast = system: BT-549 breast
CAKI-1 renal = system: CAKI-1 renal
CCRF-CEM leukemia = system: CCRF-CEM leukemia
COLO 205 colon = system: COLO 205 colon
DU-145 prostate = system: DU-145 prostate
HCC-2998 colon = system: HCC-2998 colon
HCT-116 colon = system: HCT-116 colon
HCT-15 colon = system: HCT-15 colon
HL-60(TB) leukemia = system: HL-60(TB) leukemia
HOP-62 NSCLC = system: HOP-62 NSCLC
HOP-92 NSCLC = system: HOP-92 NSCLC
HS 578T breast = system: HS 578T breast
HT29 colon = system: HT29 colon
IGROV1 ovarian = system: IGROV1 ovarian
K-562 leukemia = system: K-562 leukemia
KM12 colon = system: KM12 colon
LOX IMVI melanoma = system: LOX IMVI melanoma
M14 melanoma = system: M14 melanoma
MALME-3M melanoma = system: MALME-3M melanoma
MCF7 breast = system: MCF7 breast
MDA-MB-231 breast = system: MDA-MB-231 breast
MDA-MB-435 = system: MDA-MB-435
MOLT-4 leukemia = system: MOLT-4 leukemia
NCI-H226 lung = system: NCI-H226 lung
NCI-H23 lung = system: NCI-H23 lung
NCI-H460 lung = system: NCI-H460 lung
NCI-H522 lung = system: NCI-H522 lung
NCI/ADR-RES ovarian = system: NCI/ADR-RES ovarian
OVCAR-3 ovarian = system: OVCAR-3 ovarian
OVCAR-4 ovarian = system: OVCAR-4 ovarian
OVCAR-5 ovarian = system: OVCAR-5 ovarian
OVCAR-8 ovarian = system: OVCAR-8 ovarian
PC-3 prostate = system: PC-3 prostate
RPMI-8226 leukemia = system: RPMI-8226 leukemia
RXF 393 renal = system: RXF 393 renal
SF-268 CNS = system: SF-268 CNS
SF-295 CNS = system: SF-295 CNS
SK-MEL-2 melanoma = system: SK-MEL-2 melanoma
SK-MEL-28 melanoma = system: SK-MEL-28 melanoma
SK-MEL-5 melanoma = system: SK-MEL-5 melanoma
SN12C renal = system: SN12C renal
SNB-19 CNS = system: SNB-19 CNS
SNB-75 CNS = system: SNB-75 CNS
SR leukemia = system: SR leukemia
SW-620 colon = system: SW-620 colon
T-47D breast = system: T-47D breast
TK-10 renal = system: TK-10 renal
U251 CNS = system: U251 CNS
UACC-257 melanoma = system: UACC-257 melanoma
UACC-62 melanoma = system: UACC-62 melanoma
UO-31 renal = system: UO-31 renal

Structure (SMILES): COc1ccc(S(=O)(=O)Nc2cc(/C=C\c3cc(OC)c(OC)c(OC)c3)cc(OC)c2OC)cc1
- GI50 (786-0 renal): 57.9 nM
- TGI (786-0 renal): 22600 nM
- GI50 (A498 renal): 21.7 nM
- TGI (A498 renal): 92.4 nM
- GI50 (A549 NSCLC): 47.4 nM
- TGI (A549 NSCLC): > 100000 nM
- GI50 (ACHN renal): 57 nM
- TGI (ACHN renal): 23200 nM
- GI50 (BT-549 breast): 42.5 nM
- TGI (BT-549 breast): 79000 nM
- GI50 (CAKI-1 renal): 53.1 nM
- TGI (CAKI-1 renal): 30900 nM
- GI50 (CCRF-CEM leukemia): 32.9 nM
- TGI (CCRF-CEM leukemia): > 100000 nM
- GI50 (COLO 205 colon): 21.4 nM
- TGI (COLO 205 colon): 45.9 nM
- GI50 (DU-145 prostate): 41.6 nM
- TGI (DU-145 prostate): > 100000 nM
- GI50 (HCC-2998 colon): 39.1 nM
- TGI (HCC-2998 colon): > 100000 nM
- GI50 (HCT-116 colon): 35 nM
- TGI (HCT-116 colon): > 100000 nM
- GI50 (HCT-15 colon): 35.8 nM
- TGI (HCT-15 colon): > 100000 nM
- GI50 (HL-60(TB) leukemia): 23.4 nM
- TGI (HL-60(TB) leukemia): 63.5 nM
- GI50 (HOP-62 NSCLC): 40.8 nM
- TGI (HOP-62 NSCLC): > 100000 nM
- GI50 (HOP-92 NSCLC): 1760 nM
- TGI (HOP-92 NSCLC): 82300 nM
- GI50 (HS 578T breast): 45.2 nM
- TGI (HS 578T breast): > 100000 nM
- GI50 (HT29 colon): 33.1 nM
- TGI (HT29 colon): 122 nM
- GI50 (IGROV1 ovarian): 57.7 nM
- TGI (IGROV1 ovarian): > 100000 nM
- GI50 (K-562 leukemia): 27.2 nM
- TGI (K-562 leukemia): 48200 nM
- GI50 (KM12 colon): 39.7 nM
- TGI (KM12 colon): > 100000 nM
- GI50 (LOX IMVI melanoma): 50 nM
- TGI (LOX IMVI melanoma): > 100000 nM
- GI50 (M14 melanoma): 30.1 nM
- TGI (M14 melanoma): > 100000 nM
- GI50 (MALME-3M melanoma): 12600 nM
- TGI (MALME-3M melanoma): 97300 nM
- GI50 (MCF7 breast): 36 nM
- TGI (MCF7 breast): > 100000 nM
- GI50 (MDA-MB-231 breast): 47.9 nM
- TGI (MDA-MB-231 breast): > 100000 nM
- GI50 (MDA-MB-435): 21.1 nM
- TGI (MDA-MB-435): 48.2 nM
- GI50 (MOLT-4 leukemia): 49.5 nM
- TGI (MOLT-4 leukemia): > 100000 nM
- GI50 (NCI-H226 lung): 27300 nM
- TGI (NCI-H226 lung): > 100000 nM
- GI50 (NCI-H23 lung): 59.3 nM
- TGI (NCI-H23 lung): > 100000 nM
- GI50 (NCI-H460 lung): 36.7 nM
- TGI (NCI-H460 lung): 17000 nM
- GI50 (NCI-H522 lung): 19.7 nM
- TGI (NCI-H522 lung): 52 nM
- GI50 (NCI/ADR-RES ovarian): 35.3 nM
- TGI (NCI/ADR-RES ovarian): 81500 nM
- GI50 (OVCAR-3 ovarian): 34.5 nM
- TGI (OVCAR-3 ovarian): 97.7 nM
- GI50 (OVCAR-4 ovarian): 84.2 nM
- TGI (OVCAR-4 ovarian): > 100000 nM
- GI50 (OVCAR-5 ovarian): 49.9 nM
- TGI (OVCAR-5 ovarian): > 100000 nM
- GI50 (OVCAR-8 ovarian): 45.9 nM
- TGI (OVCAR-8 ovarian): > 100000 nM
- GI50 (PC-3 prostate): 38 nM
- TGI (PC-3 prostate): > 100000 nM
- GI50 (RPMI-8226 leukemia): 45.9 nM
- TGI (RPMI-8226 leukemia): 13200 nM
- GI50 (RXF 393 renal): 40.1 nM
- TGI (RXF 393 renal): 72400 nM
- GI50 (SF-268 CNS): 57.5 nM
- TGI (SF-268 CNS): > 100000 nM
- GI50 (SF-295 CNS): 31.1 nM
- TGI (SF-295 CNS): > 100000 nM
- GI50 (SK-MEL-2 melanoma): 37.4 nM
- TGI (SK-MEL-2 melanoma): 63300 nM
- GI50 (SK-MEL-28 melanoma): 76.5 nM
- TGI (SK-MEL-28 melanoma): > 100000 nM
- GI50 (SK-MEL-5 melanoma): 35.9 nM
- TGI (SK-MEL-5 melanoma): 168 nM
- GI50 (SN12C renal): 69.8 nM
- TGI (SN12C renal): > 100000 nM
- GI50 (SNB-19 CNS): 60.1 nM
- TGI (SNB-19 CNS): > 100000 nM
- GI50 (SNB-75 CNS): 26.5 nM
- TGI (SNB-75 CNS): > 100000 nM
- GI50 (SR leukemia): 35.2 nM
- TGI (SR leukemia): 2370 nM
- GI50 (SW-620 colon): 43.9 nM
- TGI (SW-620 colon): > 100000 nM
- GI50 (T-47D breast): 5210 nM
- TGI (T-47D breast): > 100000 nM
- GI50 (TK-10 renal): 65 nM
- TGI (TK-10 renal): 78000 nM
- GI50 (U251 CNS): 35.7 nM
- TGI (U251 CNS): > 100000 nM
- GI50 (UACC-257 melanoma): 4100 nM
- TGI (UACC-257 melanoma): 98900 nM
- GI50 (UACC-62 melanoma): 46.1 nM
- TGI (UACC-62 melanoma): 69400 nM
- GI50 (UO-31 renal): 63.5 nM
- TGI (UO-31 renal): 85300 nM
